Consider 24 molecules from patent US8431593B2, “Heteroaryl amide derivatives” (H. Lundbeck A/S, priority 2006, dated 2013).

The target in one test is T1, P2X7 receptor (Homo sapiens, UniProt Q99572).
T1 construct: host or cells: SH-SY5Y
T1 sequence (Q99572 1-595): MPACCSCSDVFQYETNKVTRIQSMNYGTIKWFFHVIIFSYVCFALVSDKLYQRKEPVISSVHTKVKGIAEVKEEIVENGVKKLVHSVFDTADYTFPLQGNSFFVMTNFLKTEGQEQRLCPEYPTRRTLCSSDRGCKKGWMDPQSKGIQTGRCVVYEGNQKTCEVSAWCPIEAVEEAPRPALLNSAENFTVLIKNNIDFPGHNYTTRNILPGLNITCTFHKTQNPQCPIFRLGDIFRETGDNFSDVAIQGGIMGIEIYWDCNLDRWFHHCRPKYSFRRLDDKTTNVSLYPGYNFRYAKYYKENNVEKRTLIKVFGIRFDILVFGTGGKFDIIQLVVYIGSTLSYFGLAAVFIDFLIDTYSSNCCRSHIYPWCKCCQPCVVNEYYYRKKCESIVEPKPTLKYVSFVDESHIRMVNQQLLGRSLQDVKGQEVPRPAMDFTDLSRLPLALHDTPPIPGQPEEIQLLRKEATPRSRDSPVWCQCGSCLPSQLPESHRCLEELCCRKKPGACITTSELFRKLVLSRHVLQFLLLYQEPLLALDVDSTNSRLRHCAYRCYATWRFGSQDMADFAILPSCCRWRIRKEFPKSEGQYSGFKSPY
As to the kind of experiment: P2X7 calcium mobilization assay, high throughput, antagonist activity (Example 4A). In kind it is cell-based.
Conditions: not given
The method in brief: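 Dye-loaded cells (100,000/well, seeded previous day) are pre-exposed to compound for an hour at room temperature. Fluorescence maxima are baseline-corrected against no-agonist wells and compared with the averaged agonist-well maximum.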
`CCOC(=O)c1cn2c(C(=O)NCC34CC5CC(CC(C5)C3)C4)cccc2n1` [Compound 2, ethyl 5-[(adamantan-1-ylmethyl)carbamoyl]imi-dazo[1,2-a]pyridine-2-carboxylate]: the IC50 is < 2 µM.

The same test, now with this note: 50% decrease in the fluorescence response of cells exposed to 80 μM 2′(3′)-O-(4-benzoyl-benzoyl)adenosine 5′-triphosphate; Example 4A; read-out: IC50.
Regarding `COC(=O)C1CCCN1C(=O)c1cn2c(C(=O)NC[C@@H]3CC[C@H]4C[C@@H]3C4(C)C)cccc2n1` (stereo partly drawn) [Compound 480, methyl 1-{[5-({[(1S,2R,5S)-6.6-dimethylbicyclo[3.1.1]hept-2-yl]methyl}carbamoyl)imidazo[1,2-a]pyridin-2-yl]carbonyl}prolinate], the IC50 is < 2 µM.

Regarding `C[C@@H]1CN(C(=O)Cc2cn3c(C(=O)NC[C@@H]4CC[C@@H]5C[C@H]4C5(C)C)cccc3n2)CCN1` [Compound 564, N-{[(1R,2R,5R)-6,6-dimethylbicyclo[3.1.1]hept-2-yl]methyl}-2-{2-[(3R)-3-methylpiperazin-1-yl]-2-oxoethyl}imidazo[1,2-a]pyridine-5-carboxamide], the IC50 was < 2 µM.

The same test, now with this note: 50% decrease in the fluorescence response of cells exposed to 80 μM of 2′(3′)-O-(4-benzoyl-benzoyl)adenosine 5′-triphosphate; Example 4A; read-out: IC50.
With `O=C(NCCN1CCOCC1)c1cn2c(C(=O)NCC34CC5CC(CC(C5)C3)C4)cccc2n1` [Compound 648, 5-N-(adamantan-1-ylmethyl)-2-N-(2-morpholin-4-ylethyl)imidazo[1,2-a]pyridine-2,5-dicarboxamide], the IC50 was < 2 µM.

For `NC1CN(C(=O)c2cn3c(C(=O)NCC45CC6CC(CC(C6)C4)C5)cccc3n2)C1` [Compound 635, N-(adamantan-1-ylmethyl)-2-[(3-aminoazetidin-1-yl)carbonyl]imidazo[1,2-a]pyridine-5-carboxamide], the IC50 is < 2 µM.

For `Cc1cnc(CNC(=O)c2cn3c(C(=O)NCC45CC6CC(CC(C6)C4)C5)cccc3n2)cn1` [Compound 656, 5-N-(adamantan-1-ylmethyl)-2-N-[(5-methylpyrazin-2-yl)methyl]imidazo[1,2-a]pyridine-2,5-dicarboxamide], the IC50 was < 2 µM.

As to `CN1CCN(C)C(CN(C)C(=O)c2cn3c(C(=O)NCC45CC6CC(CC(C6)C4)C5)cccc3n2)C1` (stereo not drawn) [Compound 706, 5-N-(adamantan-1-ylmethyl)-2-N-[(l,4-dimethylpiperazin-2-yl)methyl]-2-N-methylimidazo[1,2-a]pyridine-2,5-dicarboxamide], the IC50 is < 2 µM.

`CC(C)N[C@@H]1CCN(C(=O)c2cn3c(NC(=O)CC45CC6CC(CC(C6)C4)C5)cccc3n2)C1` (stereo in doubt) [Compound 743, 2-adamantan-1-yl-N-(2-{[3-(isopropylamino)pyrrolidin-1-yl]carbonyl}imidazo[1,2-a]pyridin-5-yl)acetamide]: the IC50 was < 2 µM.

The same test, now with this note: 50% decrease in the fluorescence response of cells exposed to 80 μM of 2′(3′)-O-(4-benzoyl-benzoyl)adenosine 5′-triphosphate; determined as in Example 4A; read-out: IC50.
For the molecule `CCCC(CNC(=O)c1cccc2nc(CC(=O)N[C@@H]3CCCNC3)cn12)c1ccc(Cl)cc1` (stereo partly drawn) [Compound 925, N-[2-(4-chlorophenyl)pentyl]-2-{2-oxo-2-[(3R)-piperidin-3-ylamino]ethyl} imidazo [1,2-a]pyridine-5-carboxamide], the IC50 is < 2 µM.

On to `CCOC(=O)Cc1nnnn1Cc1cn2c(C(=O)NCC34CC5CC(CC(C5)C3)C4)cccc2n1` [Compound 902, ethyl [1-({5-[(adamantan-1-ylmethyl)carbamoyl]imidazo[1,2-a]pyridin-2-yl}methyl)-1H-tetrazol-5-yl]acetate], for which the IC50 is < 2 µM.

On to `Cc1ccc(C(CNC(=O)c2cccc3nc(CC(Cc4ccccc4)C(=O)O)cn23)CC(C)C)cc1` (stereo not drawn) [Compound 1005, 2-benzyl-3-(5-{[4-methyl-2-(4-methylphenyl)pentyl]carbamoyl}imidazo[1,2-a]pyridin-2-yl)propanoic acid], for which the IC50 is < 2 µM.

For the molecule `CC(O)CNC(=O)Cc1cn2c(C(=O)NCC3(c4ccc(C(F)(F)F)cc4)CCCCC3)cccc2n1` (stereo not drawn) [Compound 864, 2-{2-[(2-hydroxypropyl)amino]-2-oxoethyl}-N-({1-[4-(trifluoromethyl)phenyl]cyclohexyl}methyl) imidazo[1,2-a] pyridine-5-carboxamide], the IC50 is < 2 µM.

As for `O=C(Cc1cn2c(C(=O)NCCc3ccccc3)cccc2n1)NCC12CC3CC(CC(C3)C1)C2` [Compound 972, 2-{2-[(adamantan-1-ylmethyl)amino]-2-oxoethyl}-N-(2-phenylethyl)imidazo[1,2-a]pyridine-5-carboxamide], the IC50 is < 2 µM.

The test is the same for the next values; noted with them: P2X7 calcium mobilization, Example 4A; 50% decrease in the fluorescence response of cells exposed to 80 μM of (2′(3′)-O-(4-benzoyl-benzoyl)adenosine 5′-triphosephate); read-out: IC50.
Turning to `CC(C)CC(CNC(=O)c1cccc2nc(CN3CC[C@@H](N(C)C)C3)cn12)c1ccc(Cl)cc1` (stereo partly drawn) [Compound 1039, N-[2-(4-chlorophenyl)-4-methylpentyl]-2-{[(3R)-3-(dimethylamino)pyrrolidin-1-yl]methyl} imidazo[1,2-a]pyridine-5-carboxamide], the IC50 is < 2 µM.

The same test, now with this note: SH-SY5Y cells; 50% decrease in fluorescence response to 80 μM BzATP; read-out: IC50.
Regarding `COCC1CCCN(C(=O)Cc2cn3c(C(=O)NCC45CC6CC(CC(C6)C4)C5)cccc3n2)C1` (stereo not drawn) [Compound 176, N-(adamantan-1-ylmethyl)-2-{2-[3-(methoxymethyl)piperidin-1-yl]-2-oxoethyl}imidazo[1,2-a]pyridine-5-carboxamide], the IC50 was < 2 µM.

As for `CC(C)CNC(=O)c1cn2c(C(=O)NCC34CC5CC(CC(C5)C3)C4)cccc2n1` [Compound 73, 5-N-(adamantan-1-ylmethyl)-- isobutylimidazo[1,2-a]pyridine-2,5-dicarboxamide], the half-maximal inhibitory concentration (IC50) was < 2 µM.

For the molecule `CN(C(=O)Cc1cn2c(C(=O)NCC34CC5CC(CC(C5)C3)C4)cccc2n1)C1CCOC1` (stereo not drawn) [Compound 37, N-(adamantan-1-ylmethyl)-2-{2-[methyl(tetrahydrofuran-3-yl)amino]-2-oxoethyl}imidazo[1,2-a]pyridine-5-carboxamide], the IC50 is < 2 µM.

For `CN(C)C(=O)Cc1cn2c(C(=O)NCC34CC5CC(CC(C5)C3)C4)cccc2n1` [Compound 165, N-(adamantan-1-ylmethyl)-2-[2-(dimethylamino)-2-oxoethyl]imidazo[1,2-a]pyridine-5-carboxamide], the IC50 was < 2 µM.

With `CS(=O)(=O)NCCc1cn2c(C(=O)NCC34CC5CC(CC(C5)C3)C4)cccc2n1` [Compound 193, N-(adamantan-1-ylmethyl)-2-{2-[(methylsulfonyl)amino]eth-yl}imidazo[1,2-a]pyridine-5-carboxamide], the IC50 was < 2 µM.

Staying with this test, now noted: fluorescence response of cells exposed to 80 μM 2′(3′)-O-(4-benzoyl-benzoyl)adenosine 5′-triphosphate; Example 4A; read-out: IC50.
Regarding `CC(C)N(CCO)C(=O)c1cn2c(NC(=O)CC34CC5CC(CC(C5)C3)C4)cccc2n1` [Compound 413, 5-[(adamantan-1-ylacetyl)amino]-N-(2-hydroxyethyl)-N-isopropylimidazo[1,2-a]pyridine-2-carboxamide], the concentration for half-maximal inhibition (IC50) was < 2 µM.

With `CCNC(=O)Cc1cn2c(C(=O)NCC(CC(C)C)c3ccccc3)cccc2n1` (stereo not drawn) [Compound 220, 2-[2-(ethylamino)-2-oxoethyl]-N-(4-methyl-2-phenylpentyl) imidazo [1,2-a]pyridine-5-carboxamide], the IC50 was < 2 µM.

In the case of `CCN(CCCO)C(=O)c1cn2c(NC(=O)CC34CC5CC(CC(C5)C3)C4)cccc2n1` [Compound 417, 5-[(adamantan-1-ylacetyl)amino]-N-ethyl-N-(3-hydroxypropyl) imidazo [1,2-a]pyridine-2-carboxamide], the IC50 was < 2 µM.

Regarding `CCN(C)C(=O)c1cn2c(NC(=O)CC34CC5CC(CC(C5)C3)C4)cccc2n1` [Compound 369, 5-[(adamantan-1-ylacetyl)amino]-N-ethyl-N-methylimidazo[1,2-a]pyridine-2-carboxamide], the IC50 is < 2 µM.

Consider `N[C@@H]1CCCN(C(=O)Cc2cn3c(C(=O)NCC45CC6CC(CC(C6)C4)C5)cccc3n2)C1` [Compound 295, N-(adamantan-1-ylmethyl)-2-{2-[(3R)-3-aminopiperidin-1-yl]-2-oxoethyl}imidazo[1,2-a]pyridine-5-carboxamide], for which the IC50 was < 2 µM.

For orientation: IC50 means the concentration needed to halve the response being measured.
